Experimental data: ChEMBL document CHEMBL4190322, “Structure-based development of novel triazoles and related thiazolotriazoles as anticancer agents and Cdc25A/B phosphatase inhibitors. Synthesis, in vitro biological evaluation, molecular docking and in silico ADME-T studies” (Eur J Med Chem, 2017)
Active and inactive are the calls of the source. The rule behind the calls is not given here.

What was measured:
Assay type in all cases: functional
[1] = test system: OVCAR-3; experiment: Growth inhibition of human OVCAR3 cells at 10 uM after 48 hrs by SRB assay relative to control
[2] = test system: RXF 393; experiment: Growth inhibition of human RXF393 cells at 10 uM after 48 hrs by SRB assay relative to control
[3] = test system: NCI/ADR-RES; experiment: Growth inhibition of human NCI/ADR-RES cells at 10 uM after 48 hrs by SRB assay relative to control; settings: for inhibition of growth at 10 µM: read-out: GI
[4] = test system: UACC-62; experiment: Growth inhibition of human UACC62 cells at 10 uM after 48 hrs by SRB assay relative to control
[5] = test system: PC-3; experiment: Growth inhibition of human PC3 cells at 10 uM after 48 hrs by SRB assay relative to control; settings: PC-3, 48 h, read-out: GI
[6] = test system: Malme-3M; experiment: Growth inhibition of human MALME-3M cells at 10 uM after 48 hrs by SRB assay relative to control
[7] = test system: A549; experiment: Growth inhibition of human A549 cells at 10 uM after 48 hrs by SRB assay relative to control; settings: A549, 48 h, read-out: GI
[8] = test system: SF-268; experiment: Growth inhibition of human SF268 cells at 10 uM after 48 hrs by SRB assay relative to control; settings: SF-268, 48 h, read-out: GI
[9] = test system: NCI-H322M; experiment: Growth inhibition of human NCI-H322M cells at 10 uM after 48 hrs by SRB assay relative to control
[10] = test system: CAKI-1; experiment: Growth inhibition of human Caki1 cells at 10 uM after 48 hrs by SRB assay relative to control; settings: CAKI-1, 48 h, read-out: GI
[11] = test system: HOP-92; experiment: Growth inhibition of human HOP92 cells at 10 uM after 48 hrs by SRB assay relative to control; settings: HOP-92, 48 h, read-out: GI
[12] = test system: UO-31; experiment: Growth inhibition of human UO31 cells at 10 uM after 48 hrs by SRB assay relative to control; settings: UO-31, 48 h, read-out: GI
[13] = test system: NCI-H522; experiment: Growth inhibition of human NCI-H522 cells at 10 uM after 48 hrs by SRB assay relative to control; settings: NCI-H522, 48 h, read-out: GI
[14] = test system: SNB-19; experiment: Growth inhibition of human SNB19 cells at 10 uM after 48 hrs by SRB assay relative to control; settings: for inhibition of growth at 10 µM: SNB-19, 48 h, read-out: GI
[15] = test system: KM12; experiment: Growth inhibition of human KM12 cells at 10 uM after 48 hrs by SRB assay relative to control; settings: for inhibition of growth at 10 µM: KM12, 48 h, read-out: GI
[16] = test system: K562; experiment: Growth inhibition of human K562 cells at 10 uM after 48 hrs by SRB assay relative to control; settings: K562, 48 h, read-out: GI
[17] = test system: OVCAR-8; experiment: Growth inhibition of human OVCAR8 cells at 10 uM after 48 hrs by SRB assay relative to control
[18] = test system: MDA-MB-468; experiment: Growth inhibition of human MDA-MB-468 cells at 10 uM after 48 hrs by SRB assay relative to control
[19] = test system: CCRF-CEM; experiment: Growth inhibition of human CCRF-CEM cells at 10 uM after 48 hrs by SRB assay relative to control; settings: read-out: GI
[20] = test system: HL-60; experiment: Growth inhibition of human HL60 cells at 10 uM after 48 hrs by SRB assay relative to control
[21] = test system: SK-OV-3; experiment: Growth inhibition of human SKOV3 cells at 10 uM after 48 hrs by SRB assay relative to control
[22] = test system: SNB-75; experiment: Growth inhibition of human SNB75 cells at 10 uM after 48 hrs by SRB assay relative to control; settings: SNB-75, 48 h, read-out: GI
[23] = test system: UACC-257; experiment: Growth inhibition of human UACC257 cells at 10 uM after 48 hrs by SRB assay relative to control; settings: for inhibition of growth at 10 µM: UACC-257, 48 h, read-out: GI
[24] = test system: SK-MEL-2; experiment: Growth inhibition of human SK-MEL-2 cells at 10 uM after 48 hrs by SRB assay relative to control; settings: SK-MEL-2, 48 h, read-out: GI
[25] = test system: NCI-H23; experiment: Growth inhibition of human NCI-H23 cells at 10 uM after 48 hrs by SRB assay relative to control; settings: NCI-H23, 48 h, read-out: GI
[26] = test system: HCT-116; experiment: Growth inhibition of human HCT116 cells at 10 uM after 48 hrs by SRB assay relative to control
[27] = test system: 786-0; experiment: Growth inhibition of human 786-0 cells at 10 uM after 48 hrs by SRB assay relative to control
[28] = test system: NCI-H226; experiment: Growth inhibition of human NCI-H226 cells at 10 uM after 48 hrs by SRB assay relative to control; settings: for inhibition of growth at 10 µM: NCI-H226, 48 h, read-out: GI
[29] = test system: Hs-578T; experiment: Growth inhibition of human Hs 578T cells at 10 uM after 48 hrs by SRB assay relative to control
[30] = test system: SK-MEL-5; experiment: Growth inhibition of human SK-MEL-5 cells at 10 uM after 48 hrs by SRB assay relative to control
[31] = test system: A498; experiment: Growth inhibition of human A498 cells at 10 uM after 48 hrs by SRB assay relative to control; settings: A498, 48 h, read-out: GI
[32] = test system: HOP-62; experiment: Growth inhibition of human HOP62 cells at 10 uM after 48 hrs by SRB assay relative to control; settings: for inhibition of growth at 10 µM: HOP-62, 48 h, read-out: GI
[33] = test system: SR; experiment: Growth inhibition of human SR cells at 10 uM after 48 hrs by SRB assay relative to control; settings: read-out: GI
[34] = test system: RPMI-8226; experiment: Growth inhibition of human RPMI8226 cells at 10 uM after 48 hrs by SRB assay relative to control; settings: RPMI-8226, 48 h, read-out: GI
[35] = test system: OVCAR-4; experiment: Growth inhibition of human OVCAR4 cells at 10 uM after 48 hrs by SRB assay relative to control
[36] = test system: HT-29; experiment: Growth inhibition of human HT-29 cells at 10 uM after 48 hrs by SRB assay relative to control
[37] = test system: U-251; experiment: Growth inhibition of human U251 cells at 10 uM after 48 hrs by SRB assay relative to control; settings: U-251, 48 h, read-out: GI
[38] = test system: MCF7; experiment: Growth inhibition of human MCF7 cells at 10 uM after 48 hrs by SRB assay relative to control; settings: MCF7, 48 h, read-out: GI
[39] = test system: LOX IMVI; experiment: Growth inhibition of human LOXIMVI cells at 10 uM after 48 hrs by SRB assay relative to control; settings: read-out: GI
[40] = test system: MOLT-4; experiment: Growth inhibition of human MOLT4 cells at 10 uM after 48 hrs by SRB assay relative to control; settings: for inhibition of growth at 10 µM: MOLT-4, 48 h, read-out: GI

COc1ccc(Cc2nnc3sc(SC)nn23)cc1
growth inhibition (GI) [1]: inactive
growth inhibition (GI) [2]: inactive
growth inhibition (GI) [3]: inactive
growth inhibition (GI) [4]: inactive
inhibition of growth at 10 µM [5]: 2.19%
growth inhibition (GI) [6]: inactive
inhibition of growth at 10 µM [7]: 4.46%
inhibition of growth at 10 µM [8]: 2.15%
growth inhibition (GI) [9]: inactive
inhibition of growth at 10 µM [10]: 4.37%
inhibition of growth at 10 µM [11]: 13.4%
inhibition of growth at 10 µM [12]: 12.7%
inhibition of growth at 10 µM [13]: 12.2%
growth inhibition (GI) [14]: inactive
growth inhibition (GI) [15]: inactive
inhibition of growth at 10 µM [16]: 3.47%
growth inhibition (GI) [17]: inactive
growth inhibition (GI) [18]: inactive
inhibition of growth at 10 µM [19]: 5.04%
growth inhibition (GI) [20]: inactive
growth inhibition (GI) [21]: inactive
inhibition of growth at 10 µM [22]: 8.34%
inhibition of growth at 10 µM [23]: 9.07%
inhibition of growth at 10 µM [24]: 14.7%
inhibition of growth at 10 µM [25]: 5.4%
growth inhibition (GI) [26]: inactive
growth inhibition (GI) [27]: inactive
inhibition of growth at 10 µM [28]: 4.76%
growth inhibition (GI) [29]: inactive
growth inhibition (GI) [30]: inactive
inhibition of growth at 10 µM [31]: 3.37%
growth inhibition (GI) [32]: inactive
inhibition of growth at 10 µM [33]: 7.53%
inhibition of growth at 10 µM [34]: 1.21%
growth inhibition (GI) [35]: inactive
growth inhibition (GI) [36]: inactive
inhibition of growth at 10 µM [37]: 3.17%
inhibition of growth at 10 µM [38]: 8.21%
inhibition of growth at 10 µM [39]: 2.73%
growth inhibition (GI) [40]: inactive

CCSc1nnc(Cc2ccc(OC)cc2)n1-c1ccccc1
growth inhibition (GI) [1]: inactive
growth inhibition (GI) [2]: inactive
inhibition of growth at 10 µM [3]: 6.88%
growth inhibition (GI) [4]: inactive
inhibition of growth at 10 µM [5]: 14.3%
inhibition of growth at 10 µM ([6]; read-out: GI): 9.23%
inhibition of growth at 10 µM [7]: 5.86%
inhibition of growth at 10 µM [8]: 6.15%
growth inhibition (GI) [9]: inactive
inhibition of growth at 10 µM [10]: 11.9%
inhibition of growth at 10 µM [11]: 8.26%
inhibition of growth at 10 µM [12]: 20%
inhibition of growth at 10 µM [13]: 22.4%
inhibition of growth at 10 µM [14]: 14.5%
inhibition of growth at 10 µM [15]: 3.07%
inhibition of growth at 10 µM [16]: 14.1%
growth inhibition (GI) [17]: inactive
inhibition of growth at 10 µM ([18]; MDA-MB-468, 48 h, read-out: GI): 10.7%
inhibition of growth at 10 µM [19]: 7.61%
growth inhibition (GI) [20]: inactive
growth inhibition (GI) [21]: inactive
inhibition of growth at 10 µM [22]: 10%
inhibition of growth at 10 µM [23]: 3.16%
inhibition of growth at 10 µM [24]: 5%
inhibition of growth at 10 µM [25]: 6.16%
growth inhibition (GI) [26]: inactive
growth inhibition (GI) [27]: inactive
inhibition of growth at 10 µM [28]: 5.31%
growth inhibition (GI) [29]: inactive
inhibition of growth at 10 µM ([30]; SK-MEL-5, 48 h, read-out: GI): 4.7%
inhibition of growth at 10 µM [31]: 22.1%
inhibition of growth at 10 µM [32]: 2.28%
inhibition of growth at 10 µM [33]: 3.31%
inhibition of growth at 10 µM [34]: 13.5%
inhibition of growth at 10 µM ([35]; OVCAR-4, 48 h, read-out: GI): 7.48%
inhibition of growth at 10 µM ([36]; HT-29, 48 h, read-out: GI): 8.24%
inhibition of growth at 10 µM [37]: 13%
inhibition of growth at 10 µM [38]: 5.53%
inhibition of growth at 10 µM [39]: 4.89%
inhibition of growth at 10 µM [40]: 10%

COc1ccc(Cc2nnc(SCC(=O)Nc3ccc(C)cc3)n2-c2ccc(C)cc2)cc1
growth inhibition (GI) [1]: inactive
growth inhibition (GI) [2]: inactive
inhibition of growth at 10 µM [3]: 5.55%
inhibition of growth at 10 µM ([4]; UACC-62, 48 h, read-out: GI): 4.65%
inhibition of growth at 10 µM [5]: 32.4%
growth inhibition (GI) [6]: inactive
inhibition of growth at 10 µM [7]: 1.85%
inhibition of growth at 10 µM [8]: 4.43%
growth inhibition (GI) [9]: inactive
inhibition of growth at 10 µM [10]: 1.24%
inhibition of growth at 10 µM [11]: 17.5%
inhibition of growth at 10 µM [12]: 31.3%
inhibition of growth at 10 µM [13]: 13.1%
inhibition of growth at 10 µM [14]: 3.42%
inhibition of growth at 10 µM [15]: 8.1%
inhibition of growth at 10 µM [16]: 26.4%
growth inhibition (GI) [17]: inactive
growth inhibition (GI) [18]: inactive
inhibition of growth at 10 µM [19]: 7.21%
growth inhibition (GI) [20]: inactive
inhibition of growth at 10 µM ([21]; SK-OV-3, 48 h, read-out: GI): 12%
inhibition of growth at 10 µM [22]: 1.89%
growth inhibition (GI) [23]: inactive
inhibition of growth at 10 µM [24]: 6.19%
inhibition of growth at 10 µM [25]: 2%
growth inhibition (GI) [26]: inactive
growth inhibition (GI) [27]: inactive
growth inhibition (GI) [28]: inactive
growth inhibition (GI) [29]: inactive
growth inhibition (GI) [30]: inactive
inhibition of growth at 10 µM [31]: 46.2%
inhibition of growth at 10 µM [32]: 1.2%
inhibition of growth at 10 µM [33]: 12.8%
inhibition of growth at 10 µM [34]: 10%
growth inhibition (GI) [35]: inactive
growth inhibition (GI) [36]: inactive
inhibition of growth at 10 µM [37]: 2%
inhibition of growth at 10 µM [38]: 3%
inhibition of growth at 10 µM [39]: 2.4%
inhibition of growth at 10 µM [40]: 39.5%
